This is an account of results in patent US20240197760A1, “ACTIVATORS OF INTEGRATED STRESS RESPONSE PATHWAY FOR PROTECTION AGAINST FERROPTOSIS” (Burke Neurological Institute, priority 2021, published 2024).

In one series the test system is hippocampal slices. The series is described as follows: Long term potentiation (fEPSP) in submerged hippocampal slices. Further details: species or system mouse. The settings on record: 10 mM for 6 h in ACSF. The source says: Brains were quickly removed from mice sacrificed by cervical dislocation and placed in cold artificial cerebrospinal fluid (ACSF) (bubbled with 95% O2/5% CO2) containing (in mM): 124 NaCl, 4 KCl, 1 Na2HPO4, 25 NaHCO3, 2 CaCl2, 2 MgCl2, and 10 glucose. The pH and osmolarity of the solution were 7.4 and 310 mOsm/L, respectively. The hippocampus was isolated and placed on a mechanical tissue chopper to produce transverse hippocampal slices of 400 μm thickness. […] Hippocampal slices were allowed to recover for at least 90 min prior to beginning the experiment. For recordings, glass electrodes were filled with ACSF and positioned in the CA1 stratum radiatum to record fEPSPs evoked by local stimulation (0.1 ms) of Schaffer collateral fibers using a bipolar concentric electrode placed laterally to the recording electrode (˜150 μm). For LTP recordings, the voltage intensity of the stimulation test pulse (square pulse, 100 us duration) for each slice was determined to be the voltage intensity that had generated 30-40% of the maximum slope obtained using input-output relationships. Facilitation was calculated as the ratio of the slopes of the second and first fEPSPs, and plotted as a function of the inter-pulse duration. For LTP, a test pulse was applied every minute. […] Residual potentiation was calculated as the average of the last 15 min of 2 h of recordings.

Another series deals with primary neurons. The series is described as follows: High throughput RNA sequencing of primary neurons. In kind it is cell-based, mouse. The procedure: Primary cortical neurons were treated with 2-DG (1 mM and 10 mM) for 6 h from three independent cultures and RNA was isolated from each sample using a NucleoSpin RNA II Kit (Clontech, Catalog number-740955-250). For each RNA sample, RNA quality was initially quantified using the RNA Integrity Number (RIN) on an Agilent Bioanalyzer (Agilent Genomics). RNA-sequencing was carried out for the RNAs with by the UCLA Neuroscience Genomics Core. In brief, cDNA was generated using Ovation® RNA-Seq System V2 (NuGEN) followed by the library preparation using Illumina's TruSeq Stranded RNA (100 ng)+RiboZero Gold. The libraries were pooled and sequenced to generate 75 bp paired end reads on HiSeqTM4000 system (Illumina). Minimum of […] reads were obtained. Reads were aligned to the mouse mm10 reference genome using the STAR (ver 2.4.0) spliced read aligner (Dobin et al., 2013). Uniquely aligned read percentage was […](SD). Various quality matrix was generated to use high quality data for the analysis. Read counts for mouse […] genes were generated by HT-seq 0.6.1 (Anders et al., 2015). Genes with at least 5 read events at least half of samples were permitted into the dataset, for a total of 15,787 genes. Raw counts were normalized by trimmed mean of M values (TMM). Differentially expressed genes (DEG) were analyzed using an EdgeR bioconductor R (Robinson et al., 2010). False discovery rate less than 0.1 is used to define differentially expressed genes. Gene Set Enrichment Analysis (GSEA) was performed with gene lists sorted by directional p-Values from differential expression analysis. Raw and processed RNAseq data are deposited to Gene Expression Omnibus (GEO #).

For the next series, the system named is Trib3, Chac1, Bip. The series is described as follows: Expression of ATF4 target genes and chaperone Bip in mouse primary neurons. In kind it is cell-based. The settings on record: 6 h, mouse primary neurons. Here is the method:
Total RNA was extracted from primary cortical neurons using NucleoSpin RNA II Kit (Clontech, Catalog number—740955-250). Thereafter, using the Taqman RNA-to-Ct, one step kit (Thermo Fisher Scientific, catalog number—4392938) and following the manufacturer's instructions, […] from each sample was mixed with the Taqman® Gene Expression Master Mix and Taqman® Gene Expression Assays for Creb1 (Catalog number—Mm00501607_m1), Bdnf (Catalog number—Mm04230607_s1), Rbbp4 (Catalog number—Mm00771401_g1), Bip (Catalog number—Mm00517691_m1), Trib3 (Catalog number—Mm00454879_m1), and Chac1 (Catalog number—Mm00509926_m1) with FAM labelled probe and Actin with VIC labelled probe all from Thermo Fisher Scientific on an Applied Biosystems 7500 Fast Real Time PCR System. For assessing gene expression of various specific Bdnf exons in mouse primary neurons, two step qPCR was used. Total RNA from primary cortical neurons was extracted using NucleoSpin RNA II Kit (Clontech, Catalog number—740955-250) and a total of 1.5 μg RNA was used to synthesize cDNA with the SuperScript® III First-Strand Synthesis System (Thermo Fisher Scientific, Catalog number—18080051). Quantitative RT-PCR was then performed using SYBR green (Thermo Fisher Scientific, Catalog number—4309155) on an Applied Biosystems 7500 Fast Real Time PCR System. Quantitative levels for all genes were normalized to the housekeeping gene GAPDH and expressed relative to the relevant control samples as fold change. The sequences of primers used in this part of the study were as follows: Bdnf I forward: […] (SEQ ID NO:9) and Bdnf I reverse: […] (SEQ ID NO:10); Bdnf II forward: […] (SEQ ID NO:11) and Bdnf II reverse: […] (SEQ ID NO:12); Bdnf IV forward #2: […] (SEQ ID NO:13) and Bdnf IV reverse #2: […] (SEQ ID NO:14); Bdnf VI forward: […] (SEQ ID NO:15) and Bdnf VI reverse: […] (SEQ ID NO:16); Bdnf VII forward: […] (SEQ ID NO:17) and Bdnf VII reverse: […] (SEQ ID NO:18) Bdnf IX forward: […] (SEQ ID NO:19) and Bdnf IX reverse: […] (SEQ ID NO:20); Gapdh forward #2: […] (SEQ ID NO:21) and Gapdh reverse #2: […] (SEQ ID NO: 22).

A further series has as its system ATF4. The series is described as follows: In vivo bioluminescence imaging of 5′UTR ATF4 luciferase reporter in mouse brain. The settings on record: 10 mg/Kg intraperitoneally for 4 h. (In general: A reporter such as luciferase makes a cellular process visible.)
For series [1] the following is noted: indicated by FDG PET studies; cited from earlier work.

Entries after “also recorded” stand apart in the source; their conditions may differ.

Regarding `OC[C@H]1OC(O)C[C@@H](O)[C@@H]1O` (stereo partly drawn) [2-DG, (4R,5S,6R)-6-(hydroxymethyl)oxane-2,4,5-triol], the “LTP in submerged hippocampal slices” value in the series with hippocampal slices is “significant increase”. In addition, in the series with primary neurons (1 mM and 10 mM, 6 h), the “genes related to the unfolded protein response” value is recorded as “dose dependent increase”. In the series on primary neurons (1 mM or 10 mM, 6 h), the “cellular component enrichment analysis” value was “significant enrichment of genes related to endoplasmic reticulum”, the “gene set enrichment analysis: gene signature related to unfolded protein response (UPR)” value is on record as “maximal upregulation” and the “plasticity gene program in RNA sequencing” value is reported as “upregulation of a broad plasticity gene program”. The “mitochondrial gene signature in RNA sequencing” value with primary neurons (2-DG treatment, primary neurons) is recorded as “didn't show any significant change”. Also, the “expression of ATF4 target genes Trib3 and Chac1” value in the series on Trib3, Chac1, Bip was “enhanced expression; also recorded: Increase”. Besides, the “ATF4 translation in the mouse brain (luciferase activity)” value in the series with ATF4 is “significant increase”. Further, the “crossing of the blood brain barrier” value in series [1] is on record as “can easily cross the blood brain barrier”.
